Data taken from PubChem BioAssay AID1963867 (Molecular Pharmacology Branch, DTP, NCI, 2024).

System: KRAS-mutant PDC tumor spheroid with HUVEC/MSC, viability
Experiment: Anticancer human tumor 327498-153-R-J2-PDC patient-derived uterine carcinosarcoma cell line growth inhibition [KRAS2]
Conditions: for IC50: curve of first compound; for viability, T/C: stronger effect = lower value
Summary of the method: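 Combination screen of spheroid viability in tumor-cell co-cultures with endothelial (HUVEC) and mesenchymal stem cell stroma. Each agent was tested in half-log dilutions, topping at clinical Cmax or at 10 microM without a known Cmax.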

[1] = second compound 0.1 µM, first compound 0.01 µM
[2] = second compound 0.1 µM, first compound 0.0316 µM
[3] = second compound 0.1 µM, first compound 0.1 µM
[4] = second compound 0.1 µM, first compound 0.316 µM
[5] = second compound 0.1 µM, first compound 1 µM
[6] = second compound 0.1 µM, first compound 3.16 µM
[7] = second compound 0.316 µM, first compound 0.01 µM
[8] = second compound 0.316 µM, first compound 0.0316 µM
[9] = second compound 0.316 µM, first compound 0.1 µM
[10] = second compound 0.316 µM, first compound 0.316 µM
[11] = second compound 0.316 µM, first compound 1 µM
[12] = second compound 0.316 µM, first compound 3.16 µM
[13] = second compound 1 µM, first compound 0.01 µM
[14] = second compound 1 µM, first compound 0.0316 µM
[15] = second compound 1 µM, first compound 0.1 µM
[16] = second compound 1 µM, first compound 0.316 µM
[17] = second compound 1 µM, first compound 1 µM
[18] = second compound 1 µM, first compound 3.16 µM
[19] = second compound 3.16 µM, first compound 0.01 µM
[20] = second compound 3.16 µM, first compound 0.0316 µM
[21] = second compound 3.16 µM, first compound 0.1 µM
[22] = second compound 3.16 µM, first compound 0.316 µM
[23] = second compound 3.16 µM, first compound 1 µM
[24] = second compound 3.16 µM, first compound 3.16 µM
[25] = second compound 10 µM, first compound 0.01 µM
[26] = second compound 10 µM, first compound 0.0316 µM
[27] = second compound 10 µM, first compound 0.1 µM
[28] = second compound 10 µM, first compound 0.316 µM
[29] = second compound 10 µM, first compound 1 µM
[30] = second compound 10 µM, first compound 3.16 µM
[31] = second compound 0.1 µM, first compound 10 µM
[32] = second compound 0.316 µM, first compound 10 µM
[33] = second compound 1 µM, first compound 10 µM
[34] = second compound 3.16 µM, first compound 10 µM
[35] = second compound 10 µM, first compound 10 µM
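Note: spheroids exposed to agents for seven days before reading.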
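Throughout, for viability, T/C: 100% = DMSO vehicle wells so lower means fewer viable cells.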

Compound	IC50 (second compound 0.1 µM)	IC50 (second compound 0.316 µM)	IC50 (second compound 1 µM)	IC50 (second compound 3.16 µM)	IC50 (second compound 10 µM)	viability, T/C [2]	viability, T/C [3]	viability, T/C [4]	viability, T/C [5]	viability, T/C [8]	viability, T/C [9]	viability, T/C [10]	viability, T/C [11]	viability, T/C [14]	viability, T/C [15]	viability, T/C [16]	viability, T/C [17]	viability, T/C [20]	viability, T/C [21]	viability, T/C [22]	also measured
CC1COCCN1c1cc(-c2ccnn2C)c2ccnc(-c3ccn[nH]3)c2n1 (stereo not given) + COc1cc2nc(C)nc(NC(C)c3cc(N)cc(C(F)(F)F)c3)c2cc1OC1CCOC1	0.013 µM	0.0207 µM	0.0154 µM	0.0132 µM	< 0.01 µM	3.7%	2.44%	3.52%	4.74%	31.4%	9.52%	6.32%	5.51%	30.1%	10.6%	5.67%	7.04%	25.2%	6.64%	3.75%	viability, T/C [1]: 63.9%; viability, T/C [6]: 4.39%; viability, T/C [7]: 81.8%; viability, T/C [12]: 5.8%; viability, T/C [13]: 62.1%; viability, T/C [18]: 4.67%; viability, T/C [19]: 57.9%; viability, T/C [23]: 3.28%; viability, T/C [24]: 3.79%; viability, T/C [25]: 46.3%; viability, T/C [26]: 15.9%; viability, T/C [27]: 1.79%; viability, T/C [28]: 2.06%; viability, T/C [29]: 1.48%; viability, T/C [30]: 0.91%
CC1OCC2(CCN(c3cnc(Sc4ccnc(N)c4Cl)c(N)n3)CC2)C1N (stereo not given) + COc1cc2nc(C)nc(NC(C)c3cc(N)cc(C(F)(F)F)c3)c2cc1OC1CCOC1	0.129 µM	0.0855 µM	0.0993 µM	0.0648 µM	< 0.0316 µM	72.8%	46.9%	44.7%	34.4%	61.6%	47.5%	39.8%	32.3%	61.6%	50.2%	39.6%	32.8%	58%	43.3%	39.6%	viability, T/C [6]: 29.3%; viability, T/C [31]: 23.6%; viability, T/C [12]: 29.6%; viability, T/C [32]: 27.8%; viability, T/C [18]: 27.8%; viability, T/C [33]: 22.7%; viability, T/C [23]: 28.7%; viability, T/C [24]: 23.5%; viability, T/C [34]: 23.7%; viability, T/C [26]: 49.5%; viability, T/C [27]: 37.5%; viability, T/C [28]: 31.2%; viability, T/C [29]: 25.2%; viability, T/C [30]: 25.3%; viability, T/C [35]: 16.2%
CCN1CCN(Cc2ccc(Nc3ncc(F)c(-c4cc(F)c5nc(C)n(C(C)C)c5c4)n3)nc2)CC1 + COc1cc2nc(C)nc(NC(C)c3cc(N)cc(C(F)(F)F)c3)c2cc1OC1CCOC1	0.0106 µM	0.00684 µM	< 0.00316 µM	0.00442 µM	< 0.00316 µM	42.6%	40%	40%	49.2%	33.2%	35.9%	36.6%	41.2%	33%	30%	39.5%	42.8%	31%	29.9%	34.6%	viability, T/C (second compound 0.1 µM, first compound 0.00316 µM): 65.4%; viability, T/C [1]: 52.8%; viability, T/C (second compound 0.316 µM, first compound 0.00316 µM): 61%; viability, T/C [7]: 48%; viability, T/C (second compound 1 µM, first compound 0.00316 µM): 51.8%; viability, T/C [13]: 37.8%; viability, T/C (second compound 3.16 µM, first compound 0.00316 µM): 56.4%; viability, T/C [19]: 34.5%; viability, T/C [23]: 31.3%; viability, T/C (second compound 10 µM, first compound 0.00316 µM): 45.4%; viability, T/C [25]: 28.9%; viability, T/C [26]: 29.2%; viability, T/C [27]: 26.9%; viability, T/C [28]: 20.3%; viability, T/C [29]: 0.34%
CCNC(=O)CC1N=C(c2ccc(Cl)cc2)c2cc(OC)ccc2-n2c(C)nnc21 (stereo not given) + COc1cc2nc(C)nc(NC(C)c3cc(N)cc(C(F)(F)F)c3)c2cc1OC1CCOC1	0.459 µM	0.42 µM	0.352 µM	0.189 µM	0.172 µM	84.7%	81.5%	59.2%	30.5%	74%	69.1%	57.6%	27.5%	75.6%	75.2%	52.7%	22.6%	75%	56%	47.2%	viability, T/C [6]: 21.1%; viability, T/C [31]: 20.4%; viability, T/C [12]: 23.2%; viability, T/C [32]: 24.2%; viability, T/C [18]: 20.4%; viability, T/C [33]: 18.2%; viability, T/C [23]: 26.5%; viability, T/C [24]: 20.6%; viability, T/C [34]: 21.7%; viability, T/C [26]: 63.7%; viability, T/C [27]: 52.7%; viability, T/C [28]: 46.4%; viability, T/C [29]: 23.6%; viability, T/C [30]: 19.5%; viability, T/C [35]: 13.9%
Cn1nccc1Nc1nccc(-c2cc3c(s2)C(C)(C)N(CCN2CCOCC2)C3=O)n1 + COc1cc2nc(C)nc(NC(C)c3cc(N)cc(C(F)(F)F)c3)c2cc1OC1CCOC1	0.851 µM	0.56 µM	0.826 µM	0.531 µM	0.0472 µM	72.8%	73.2%	57.6%	46.1%	82.8%	67%	52.5%	47%	67.8%	65.9%	53.7%	49.4%	64.4%	57%	55.2%	viability, T/C [6]: 44%; viability, T/C [31]: 31.9%; viability, T/C [12]: 37.9%; viability, T/C [32]: 31.6%; viability, T/C [18]: 41.1%; viability, T/C [33]: 33%; viability, T/C [23]: 45%; viability, T/C [24]: 41.7%; viability, T/C [34]: 36.6%; viability, T/C [26]: 52.7%; viability, T/C [27]: 46.4%; viability, T/C [28]: 44.1%; viability, T/C [29]: 43.8%; viability, T/C [30]: 34.7%; viability, T/C [35]: 25.4%
